The values that follow come from patent US20260356846A1, “STATIN DERIVATIVES AND METHODS OF USING THE SAME” (The General Hospital Corporation, priority 2023, published 2026).

As a reminder, the maximal fold induction is the signal under treatment as a multiple of the control signal. For orientation: EC50 means the concentration giving half of the maximal effect.

The test system of test [1] is STMN2 (WT STMN2-NLuc SH-SY5Y cells). The test is described as follows: STMN2 nanoluciferase assay in WT SH-SY5Y cells (Table A: WT TDP-32; Table B: WT HD Luciferase). The format is cell-based, human. To be noted: WT cell line; for maximal fold induction: Emax. The procedure: (§1) Neuroblastoma cells (ATCC) were cultured in DMEM/F12 (Gibco) supplemented with 10% fetal-bovine serum (Omega) and 1% penicillin-streptomycin (Gibco) at 37 °C with 5% CO2. For knockdown experiments, cells were transfected with SMARTpool ON-TARGETplus siRNA or control siRNA pool (D001810-10) (GE Dharmacon) at a final concentration of 50 nM, for 96 h in two doses (0, 24 h), after complexing with Lipofectamin RNAiMAX (Invitrogen) in Opti-MEM (Gibco) for 10 min.
(§2) WT and TDP-mut (N352S) SH-SY5Y cells were edited using CRISPR-Cas9 to express Nanoluciferase at the C-terminus of both endogenous STMN2 alleles. A single guided RNA targeting STMN2 C-terminus was designed (Benchling webtool) and cloned into pSpCas9-2A-green fluorescent protein (GFP) plasmid (px458-Addgene) using the BbsI restriction site. The sequence for guided RNA targeting STMN2 was: […]. For the repair template, overlapping fragments of 800 bp STMN2 homology arms flanking Nanoluciferase (NLuc, Promega) were generated and ligated into pUC57 backbone. A 42 bp GS-linker was also included 5′ to NLuc to prevent steric hindrance of the reporter to the final STMN2 exon. Fragments were ligated using Gibson Assembly and nucleofected simultaneously with pSpCas9-2A-GFP-gRNA plasmid using the Amaxa Nucleofector (assay A-023). Forty-eight hours following electroporation, cells were collected, and GFP-positive cells sorted and single-cell seeded into 96-well plates using the SH800S Sony cell sorter. Individual clones were expanded and DNA was extracted for PCR amplification of the STMN2 Ex5 genomic locus using primers within NLuc and outside the STMN2 5′ homology arm to confirm presence of the insert. The entire STMN2 coding region and all exon-intron junctions (>500-bp length of each intronic region) were then sequenced to verify the absence of any additional DNA alteration. qPCR analysis was performed with a wild-type isogenic SH-SY5Y cell line that had undergone the mutagenesis attempt but not acquired the insertion mutation during the original screening process.
(§3) TDP-mut STMN2-NLuc SH-SY5Y cells were used in small-molecule screening at ICCB-Longwood. 3000 cells/well were plated in white 384-well plates using a 50 ul sample volume. 24 hours after plating, compounds were added using 100 nl pin transfer. 24 hours later, 25 ul NLuc assay was added to each well according to manufacturer instructions (Promega, Cat #). Plates were shaken for 1 min prior to luminescence readings using EnVision2 machine. DMSO-only and WT STMN2-NLuc cells were included as negative and positive controls respectively on each plate, producing an average Z′score of ~0.7 across the screen. Each library plate was conducted in duplicate, and Z-scores calculated for each compound. For subsequent validation experiments, cell numbers in each well were quantified by hoescht staining at 1 μg/ml for 15 mins at 37C in black, clear bottom plates, prior to imaging at 4× using automated microscopy (ImageXpressMicro). Nuclei were then counted using a custom algorithm, and luciferase assay run as above. Luminescence results were then normalised against cell counts as RLU/cell.
(§4) Each compound was tested in triplicate in log doses ranging 0.01 μM−10 μM. The values are represented in luminescence normalized to the number of cells in the well, wherein darker grey correlates to higher RLU per cell and higher STMN2 protein expression.

For test [2], the system named is STMN2 (TDP-mut (N352S) STMN2-NLuc SH-SY5Y cells). Description: STMN2 nanoluciferase assay in TDP-43 mutant SH-SY5Y cells (Table A: mut TDP-43; Table B: mut HD Luciferase). The format is cell-based, human. To be noted: mutant TDP-43 cell line. The protocol: as §1, §2, §3, §4
Setting [3] is: Homo sapiens, SH-SY5Y, Table B, read-out: EC50, WT HD Luciferase.
Setting [4] is: Homo sapiens, SH-SY5Y, Table B, read-out: EC50, mut HD Luciferase.
Where [5] appears, read: Homo sapiens, SH-SY5Y, Table A, read-out: EC50, WT TDP-32.
[6] abbreviates: Homo sapiens, SH-SY5Y, Table A, read-out: EC50, mut TDP-43.

Like-named read-outs stand apart in the source and are kept apart here.

For `COCc1c(C2CC2)nc(C2CC2)c(/C=C/[C@@H](O)C[C@@H](O)CC(=O)O)c1-c1c(F)cc(F)cc1Cl` [II-21, (3R,5S,E)-7-(4-(2-chloro-4,6-difluorophenyl)-2,6-dicyclopropyl-5-(methoxymethyl)pyridin-3-yl)-3,5-dihydroxyhept-6-enoic acid], the maximal fold induction in test [1] (Homo sapiens, SH-SY5Y, Table B) was 1.5 to 1.75. Moreover, the EC50 in test [1] (setting [3]) and in test [2] (setting [4]) was not above 10 nM each time.
For `COCc1c(C2CC2)nc(C2CC2)c(/C=C/[C@@H](O)C[C@@H](O)CC(=O)O)c1-c1cc(F)ccc1Cl` [II-13, (3R,5S,E)-7-(4-(2-chloro-5-fluorophenyl)-2,6-dicyclopropyl-5-(methoxymethyl)pyridin-3-yl)-3,5-dihydroxyhept-6-enoic acid], the EC50 in test [1] (setting [3]) and in test [2] (setting [4]) was 10 to 50 nM throughout.
Turning to `Cc1cc(F)ccc1-c1cc(C23CC(C2)C3)nc(C2CC2)c1/C=C/[C@@H](O)C[C@@H](O)CC(=O)O` [II-14, (3R,5S,E)-7-(6-(bicyclo[1.1.1]pentan-1-yl)-2-cyclopropyl-4-(4-fluoro-2-methylphenyl)pyridin-3-yl)-3,5-dihydroxyhept-6-enoic acid], the EC50 in test [1] (setting [3]) and in test [2] (setting [4]) was 100 to 500 nM each time.
`O=C(O)C[C@H](O)C[C@H](O)/C=C/c1c(C2CC2)nc2c(C3CC3)csc2c1-c1ccc(F)cc1` [Example I-25, (3R,5S,E)-7-(3,5-dicyclopropyl-7-(4-fluorophenyl)thieno[3,2-b]pyridin-6-yl)-3,5-dihydroxyhept-6-enoic acid] registered a maximal fold induction in test [1] (Homo sapiens, SH-SY5Y, Table B) of 1.5 to 1.75. For the same compound, the EC50 in test [1] (setting [3]) and in test [2] (setting [4]) was 10 to 50 nM in each case.
For the compound `Cc1nc2c(-c3ccc(F)cc3)c(/C=C/[C@@H](O)C[C@@H](O)CC(=O)O)c(C3CC3)cc2s1` [Example I-7, (3R,5S,E)-7-(6-cyclopropyl-4-(4-fluorophenyl)-2-methylbenzo[d]thiazol-5-yl)-3,5-dihydroxyhept-6-enoic acid], the 50% effective concentration (EC50) in test [1] (setting [5]) is 1000 to 5000 nM; in test [1] (setting [3]) it was 100 to 500 nM; in test [2] (setting [6]), 1000 to 5000 nM; in test [2] (setting [4]), 100 to 500 nM. This compound also showed a maximal fold induction in test [1] (Homo sapiens, SH-SY5Y, Table B) of 1 to 1.25. The “HD Luciferase (mut, Emax)” value in test [2] (Table B) is “** (means≥1.25 and <1.5)”.
Regarding `COCc1c(C2CCC2)nc(C2CC2)c(/C=C/[C@@H](O)C[C@@H](O)CC(=O)O)c1-c1ccc(F)cc1` [II-5, (3R,5S,E)-7-(6-cyclobutyl-2-cyclopropyl-4-(4-fluorophenyl)-5-(methoxymethyl)pyridin-3-yl)-3,5-dihydroxy hept-6-enoic acid], the EC50 in test [1] (setting [5]) was not above 100 nM; in test [1] (setting [3]), not above 10 nM; in test [2] (setting [6]), not above 100 nM; in test [2] (setting [4]), not above 10 nM.
Regarding `Cc1cc2c(-c3ccc(F)cc3)c(/C=C/[C@@H](O)C[C@@H](O)CC(=O)O)c(C3CC3)nc2s1` [Example I-5a, (3R,5S,E)-7-(6-cyclopropyl-4-(4-fluorophenyl)-2-methylthieno[2,3-b]pyridin-5-yl)-3,5-dihydroxyhept-6-enoic acid], the maximal fold induction in test [1] (Homo sapiens, SH-SY5Y, Table B) fell in the range of 1 to 1.25. Further, the EC50 was not below 500 nM in test [1] (Table B, read-out: EC50, WT HD Luciferase) and not below 500 nM in test [2] (Table B, read-out: EC50, mut HD Luciferase). Also, the “HD Luciferase (mut, Emax)” value in test [2] (Table B) was “* (means≥1 and <1.25)”.
With `O=C(O)C[C@H](O)C[C@H](O)/C=C/c1c(C2CC2)nc2ccccc2c1-c1ccc(F)cc1` [Pitavastatin, pitavastatin, reference compound], the EC50 in test [1] (setting [5]) and in test [2] (setting [6]) was 500 to 1000 nM in each case.
Turning to `COCc1c(C2CC2)nc(C2CC2)c(/C=C/[C@@H](O)C[C@@H](O)CC(=O)O)c1-c1c(F)cccc1Cl` [II-22, (3R,5S,E)-7-(4-(2-chloro-6-fluorophenyl)-2,6-dicyclopropyl-5-(methoxymethyl)pyridin-3-yl)-3,5-dihydroxyhept-6-enoic acid], the concentration for a half-maximal effect (EC50) in test [1] (setting [3]) and in test [2] (setting [4]) was 10 to 50 nM in each case.
Turning to `COCc1c(C2CCC2)nc(C2CCC2)c(/C=C/[C@@H](O)C[C@@H](O)CC(=O)O)c1-c1ccc(F)cc1Cl` [II-3, (3R,5S,E)-7-(4-(2-chloro-4-fluorophenyl)-2,6-dicyclobutyl-5-(methoxymethyl)pyridin-3-yl)-3,5-dihydroxyhept-6-enoic acid], the EC50 in test [1] (setting [5]) was 500 to 1000 nM; in test [1] (setting [3]) it was 100 to 500 nM; in test [2] (setting [6]) it was 500 to 1000 nM; in test [2] (setting [4]) it was 100 to 500 nM. In addition, the maximal fold induction in test [1] (Homo sapiens, SH-SY5Y, Table B) lay in the range of 1.25 to 1.5. Further, in test [2] (Table B), the “HD Luciferase (mut, Emax)” value is “** (means≥1.25 and <1.5)”.
With `COCc1c(C2CCC2)nc(C2CCC2)c(/C=C/[C@@H](O)C[C@@H](O)CC(=O)O)c1-c1ccc(F)cc1` [II-6, (3R,5S,E)-7-(2,6-dicyclobutyl-4-(4-fluorophenyl)-5-(methoxymethyl)pyridin-3-yl)-3,5-dihydroxyhept-6-enoic acid], the EC50 in test [1] (setting [3]) and in test [2] (setting [4]) was 10 to 50 nM in each case.
In the case of `O=C(O)C[C@H](O)C[C@H](O)/C=C/c1c(C2CC2)cc2ncsc2c1-c1ccc(F)cc1` [Example I-11, (3R,5S,E)-7-(5-cyclopropyl-7-(4-fluorophenyl)benzo[d]thiazol-6-yl)-3,5-dihydroxyhept-6-enoic acid], the EC50 in test [1] (setting [3]) and in test [2] (setting [4]) was 10 to 50 nM in each case. Further, in test [2] (Table B), the “HD Luciferase (mut, Emax)” value is “** (means≥1.25 and <1.5)”.
In test [1] (Homo sapiens, SH-SY5Y, Table B), `Cc1csc2c(-c3ccc(F)cc3)c(/C=C/[C@@H](O)C[C@@H](O)CC(=O)N(C)C)c(C3CC3)nc12` [Example I-26, (3R,5S,E)-7-(5-cyclopropyl-7-(4-fluorophenyl)-3-methylthieno[3,2-b]pyridin-6-yl)-3,5-dihydroxy-N,N-dimethylhept-6-enamide] returned a maximal fold induction of 1 to 1.25. For the same compound, the EC50 in test [1] (setting [3]) and in test [2] (setting [4]) was not below 500 nM each time. Moreover, the “HD Luciferase (mut, Emax)” value in test [2] (Table B) was “* (means≥1 and <1.25)”.
In the case of `COCc1c(C2CCC2)nc(C2CC2)c(/C=C/[C@@H](O)C[C@@H](O)CC(=O)O)c1-c1ccc(F)cc1Cl` [II-4, (3R,5S,E)-7-(4-(2-chloro-4-fluorophenyl)-6-cyclobutyl-2-cyclopropyl-5-(methoxymethyl)pyridin-3-yl)-3,5-dihydroxyhept-6-enoic acid], the EC50 in test [1] (setting [5]) was not above 100 nM; in test [1] (setting [3]) it was not above 10 nM; in test [2] (setting [6]), not above 100 nM; in test [2] (setting [4]), not above 10 nM.
Regarding `COCc1c(C2CC2)nc(C2CC2)c(/C=C/[C@@H](O)C[C@@H](O)CC(=O)O)c1-c1c(C)cccc1F` [II-18, (3R,5S,E)-7-(2,6-dicyclopropyl-4-(2-fluoro-6-methylphenyl)-5-(methoxymethyl)pyridin-3-yl)-3,5-dihydroxyhept-6-enoic acid], the EC50 in test [1] (setting [3]) and in test [2] (setting [4]) was 10 to 50 nM in each case.
Regarding `Cc1csc2nc(C3CC3)c(/C=C/[C@@H](O)C[C@@H](O)CC(=O)O)c(-c3ccc(F)cc3)c12` [Example I-10, (3R,5S,E)-7-(6-cyclopropyl-4-(4-fluorophenyl)-3-methylthieno[2,3-b]pyridin-5-yl)-3,5-dihydroxyhept-6-enoic acid], the EC50 in test [1] (setting [3]) and in test [2] (setting [4]) was 10 to 50 nM throughout.
With `Cc1nc2cc(C3CC3)c(/C=C/[C@@H](O)C[C@@H](O)CC(=O)O)c(-c3ccc(F)cc3)c2s1` [Example I-8, (3R,5S,E)-7-(5-cyclopropyl-7-(4-fluorophenyl)-2-methylbenzo[d]thiazol-6-yl)-3,5-dihydroxyhept-6-enoic acid], the EC50 in test [1] (setting [5]) is 100 to 500 nM; in test [1] (setting [3]), 10 to 50 nM; in test [2] (setting [6]), 100 to 500 nM; in test [2] (setting [4]), 10 to 50 nM. The maximal fold induction in test [1] (Homo sapiens, SH-SY5Y, Table B) lay within 1.25 to 1.5.
